In a melting point compilation (Tetko et al.; mined from patent text by program, amines drawn as free bases though some values may be those of a salt):

Compared with CC(=O)Nc1c(C(=O)c2cccc(C(=O)O)c2)[nH]c2cc(Cl)ccc12, O=C(O)Cc1c(C(=O)c2ccccc2)[nH]c2ccccc12 is lower in melting point: > 290 °C for the first, 194 to 196 °C for the second.

First: CCOC(=O)CN1C(=O)[C@H](NC(=O)[C@H](COCc2ccccc2)NC(=O)OC(C)(C)C)CSc2ccccc21
Second: CCOC(=O)Cc1c(COC(C)=O)[nH]c(C(=O)OCc2ccccc2)c1C
The melting point of the first is lower: 52 to 54 °C for the first, 117 to 119 °C for the second.

First: Cc1c(C(=O)O)cnn1CC(F)(F)F
Second: CS(=O)(=O)c1ccc(-c2cnn(CC(F)(F)F)c(=O)c2NC2CCCC2)cc1
The melting point of the first is higher: 188 to 190 °C for the first, 134 to 139 °C for the second.

First: CCCCn1c(=O)c2nn(S(=O)(=O)c3ccc4ccccc4c3)cc2n(CCCC)c1=O
Second: COc1ccc(Cn2c(=O)c3cc(Cl)ccc3n(CCCCBr)c2=O)cc1
The melting point of the first is higher: 167 to 168 °C for the first, 146 to 147 °C for the second.

First: O=C(c1c(Cl)cccc1Cl)n1ccnc1-c1ccccc1
Second: O=c1c2c(-c3ccccc3)n[nH]c2c2cccnc2n1-c1ccccc1
The melting point of the first is lower: 110 to 114 °C for the first, > 300 °C for the second.

First: COc1ccc(-c2cc(NC(=O)Nc3ccc(N(CCCl)CCCl)cc3)c3cc(OC)ccc3n2)cc1
Second: COc1ccc(S(=O)(=O)Nc2cccnc2Nc2cccc(C)c2)cc1
The melting point of the first is lower: 112 to 113 °C for the first, 147 to 148 °C for the second.

First: CC(C)N1C(=O)CCCc2cc(Nc3ncc(Cl)c(NC4C5C=CC(C5)C4C(N)=O)n3)ccc21 (stereo unspecified)
Second: Cn1cccc1-c1nc2c(N[C@H]3[C@@H](C(N)=O)[C@@H]4C=C[C@H]3C4)c(Br)cnc2[nH]1
The melting point of the first is lower: 260 °C for the first, 293 to 295 °C for the second.

First: CCOC(=O)Nc1nc(C)c(-c2nc3ccccc3c(=O)n2-c2ccc(C(C)=O)cc2)s1
Second: CCOC(=O)c1ccc(NC(=O)c2ccccc2C)cc1
The melting point of the first is higher: > 275 °C for the first, 110 to 115 °C for the second.

First: COC(=O)N1Cc2nc(C(=O)O)cn2-c2ccccc21
Second: CC(=O)Nc1cc(O)ccc1Oc1ccccc1
The melting point of the first is higher: 204 to 208 °C for the first, 151 to 153 °C for the second.

CN1COc2c(N3CC4CCOC4(CNC(=O)OC(C)(C)C)C3)c(F)cc3c(=O)c(C(=O)O)cn1c23 (stereo unspecified) and Cc1c(Br)c2c(c(C)c1NC(=O)OC(C)(C)C)CCO2 cannot be ordered by melting point: 176 °C for the first, 176 to 177 °C for the second.

First: CSc1ccc2c(c1)C(=O)c1cc3ccccc3cc1C2=O
Second: Cc1nc(C)n2c1CN=C(c1ccccc1Cl)c1cc(Cl)ccc1-2
The melting point of the first is higher: 195 to 196 °C for the first, 175 to 177 °C for the second.

CNC(=O)c1cc(C(=O)O)cc(C(=O)NC)n1 and COc1cc(C(=O)O)c(C(=O)O)c(Cl)c1Cl cannot be ordered by melting point: < 300 °C for the first, 218 to 220 °C for the second.

Compared with CCCOc1ccc(OC)c(-c2csc(N)n2)c1, CCCOc1nc2ccccc2c2c1CNC2=O is higher in melting point: 76 °C for the first, 170 to 171 °C for the second.

First: COC(=O)C(C)Oc1ccc(Oc2cnc3cc(Cl)c(Cl)cc3n2)cc1 (stereo unspecified)
Second: CC(C)Oc1cc(CO)n(Cc2ccc(Cl)cc2Cl)n1
The melting point of the first is higher: 100 to 105 °C for the first, 89 to 90 °C for the second.

First: CC(=O)Nc1cccc(S(=O)(=O)c2cc(O)c(O)cc2C)c1
Second: CC(Cc1cccc(S(N)(=O)=O)c1)=NO
The melting point of the first is higher: 220 to 222 °C for the first, 154 to 157 °C for the second.

First: COc1nc2ccccc2nc1NC(=S)N1CCN(c2ccccc2SC)CC1
Second: COc1cc(N2CCN(C[C@@H](O)CO)CC2)ccc1Nc1ncc2ccc(-c3ccccc3OC)n2n1
The melting point of the first is higher: 148 to 150 °C for the first, 83 to 90 °C for the second.

O=C(CCN1CCC(C(O)c2ccc3ccccc3c2)CC1)Cc1ccc(F)cc1 (stereo unspecified) and OC1CCCN(CC(O)COc2ccc(-c3ccc(F)cc3)cc2)C1 (stereo unspecified) fall in the same range of melting point: 100 to 102 °C for the first, 100 to 102 °C for the second.

First: CCCCOC(=O)NC(=O)C1c2ccccc2Sc2ccccc21
Second: O=C(CC1c2ccccc2CCc2ccccc21)Nc1ccc(C(=O)O)cc1
The melting point of the first is lower: 151 to 154 °C for the first, 248 to 250 °C for the second.

First: CC1(C)CC(Nc2nc(Cl)nc(NC3CC(C)(C)NC(C)(C)C3)n2)CC(C)(C)N1
Second: CC12CCC(CC1=C=C1C=CC(Nc3nc(Cl)nc(NC4=CCC(=C=C5CC6CCC5(C)C6(C)C)C=C4)n3)=CC1)C2(C)C
The melting point of the first is higher: 270 °C for the first, 221 °C for the second.

First: O=C(O)C1(c2cccs2)CC1
Second: CN1CCC(O)(c2cccc3[nH]ccc23)CC1
The melting point of the first is lower: 116 to 118 °C for the first, 205 to 206 °C for the second.

CCN(CC)CCCC1CCN(CCNC(=O)N2c3ccccc3NC(=O)c3csc(C)c32)CC1 and COc1cc(N)c(Cl)cc1C(=O)NCC1CCN(CCCCCOc2ccccc2)CC1 cannot be ordered by melting point: 131 to 133 °C for the first, 129 to 132 °C for the second.

First: CNC(=O)N1N=C(c2ccc(N)cc2)c2cc3c(cc2CC1C)OCO3 (stereo unspecified)
Second: COc1ccc(C(=O)N2CCOc3ccc(C4=NNC(=O)CC4)cc32)cc1OC
The melting point of the first is lower: 133 to 135 °C for the first, 207 to 208 °C for the second.

Compared with CC(=O)Nc1ccc2c(c1)S(=O)(=O)NCN2C1CC1, CC(=O)NC[C@H]1CN(c2ccc(N3CCC(n4ccnc4)CC3)c(F)c2)C(=O)O1 is lower in melting point: 230 to 232 °C for the first, 160 to 162 °C for the second.

First: CCCCCC1OC12CCC(Nc1ncnc(CC)c1Cl)CC2 (stereo unspecified)
Second: CSc1ccc2nc(-c3cccc(C)c3)c(-c3ccnc(NC4CCCCC4)c3)n2n1
The melting point of the first is lower: 41 to 42 °C for the first, 150 to 151 °C for the second.

Compared with CCOC(=O)c1sc(NC(C)=O)nc1CCc1ccc(NC(=O)OC(C)(C)C)cc1, CCOC(=O)CC(=O)Nc1ccc(S)cc1 is lower in melting point: 213 to 214 °C for the first, 69 °C for the second.

Compared with CC#CCOc1ccc(S(=O)(=O)C2(C(=O)NO)CCN(C(C)C)CC2)cc1, COc1ccc(C=C(C(C)=O)C(C)=O)cc1 is lower in melting point: 105 °C for the first, 70 to 72 °C for the second.

First: CN1CC[C@@H]2CC(=O)c3cccc(F)c3[C@@H]2C1 (relative stereo)
Second: O=C(CN1CC(c2ccc(F)cc2)CC1=O)ON1C(=O)CCC1=O (stereo unspecified)
The melting point of the first is higher: > 220 °C for the first, 120 to 123 °C for the second.

First: Cc1nn(-c2ccccn2)c2nc3ccc(C(F)(F)F)cc3c(Cl)c12
Second: Nc1cc(Cl)c(Sc2ccc(C(F)(F)F)cc2Cl)cc1F
The melting point of the first is higher: 206 °C for the first, 80.8 °C for the second.

First: Clc1ccc(-n2ncnc2-c2cnccn2)cc1
Second: Cc1[nH]cc2c(=O)n(-c3ccc(Cl)cc3)nc-2c1-c1cccc(C(=O)N2CCN(C)CC2)c1
The melting point of the first is lower: 129 to 131 °C for the first, 318 to 322 °C for the second.

First: O=C(NCCc1ccccn1)N(c1ccccc1)c1ccccc1
Second: NCCCn1c(-c2ccc(-c3ccccc3)cc2)csc1=Nc1ccccc1
The melting point of the first is higher: 109 °C for the first, 50 to 54 °C for the second.

First: COc1c2occc2cc2c(C)cc(=O)oc12
Second: Cc1cc(Cl)cc2c1NS(=O)(=O)N(C(C)C)C2=O
The melting point of the first is higher: 167 to 168 °C for the first, 142 to 144 °C for the second.

Compared with O=S1(=O)c2cccc3cccc(c23)N1CCCN1CCC(c2ccccc2)(c2ccccc2)CC1, O=C(Nc1ccc(C(=O)N2C[C@@H]3C[C@H](O)CN3c3ccccc32)cc1)c1ccccc1-c1ccccc1 is lower in melting point: 168 °C for the first, 164 to 165 °C for the second.

First: N#Cc1cnc2cc(-c3csc(CN4CCOCC4)c3)ccc2c1Nc1ccc(Cl)cc1Cl
Second: COC(=O)c1cc2c(Nc3ccc4[nH]ccc4c3C)c(C#N)cnc2s1
The melting point of the first is lower: 203 to 205 °C for the first, 255 °C for the second.

First: CC1(C)OC(=S)Nc2ccc(-c3cc(F)cc(F)c3)cc21
Second: CCCCCc1ccc(CCc2ccc(-c3ccc(Cl)c(F)c3)cc2)cc1
The melting point of the first is higher: 224 to 225 °C for the first, 153 °C for the second.

Compared with N#CCC(C#N)NNc1c(Cl)cc(C(F)(F)F)cc1Cl (stereo unspecified), Fc1ccc(Nc2nc(Cl)nc(NN=Cc3ccc(OC(F)(F)F)cc3)n2)cc1C(F)(F)F is higher in melting point: 101 to 102 °C for the first, 109 to 111 °C for the second.

First: CC1CC(=O)NN=C1c1ccc(CCCCN)cc1 (stereo unspecified)
Second: Nc1nc2c(nc(Br)n2Cc2ccc(Cl)cc2)c(=O)[nH]1
The melting point of the first is lower: 135 to 137 °C for the first, > 300 °C for the second.

First: Cc1cc(C)n(Cc2ccc(OCc3nc(-c4ccccc4)oc3C)cc2)n1
Second: COCc1nc2c(N)nc3cc(OCc4ccccc4)ccc3c2n1CCc1ccccc1
The melting point of the first is lower: 86 to 87 °C for the first, 195 to 197 °C for the second.

First: COc1ccc(-c2nc(-c3ncc4c(n3)CCCC4)ccc2C)nc1
Second: COc1cccc(-n2c3c(c(=O)c4cccnc42)CC(CBr)O3)c1 (stereo unspecified)
The melting point of the first is lower: 157 to 158 °C for the first, 196 to 198 °C for the second.

First: CCCCN=C(N(CCCC)CCCC)N(CCCC)CCCC
Second: CCOC(C)OC(C)(C)CCCC(C)C1CCC2C3CC=C4CC(O)CC(O)C4(C)C3CCC12C (stereo unspecified)
The melting point of the first is lower: 100 to 102 °C for the first, 128 to 130 °C for the second.

Compared with COc1ccc2c(c1)c1c3c(c(-c4c(Cl)cccc4OC)cc1n2CCCO)C(=O)NC3=O, CCOC(=O)c1ncn2c1[C@@H]1CCN1C(=O)c1c(Cl)cccc1-2 is lower in melting point: 224 to 227 °C for the first, 184 to 185 °C for the second.

First: CN1CCN(C2=Nc3cc(Cl)ccc3Oc3cscc32)CC1
Second: COC(=O)C1CCc2cc(OC)ccc2C1=O (stereo unspecified)
The melting point of the first is higher: 180 to 182 °C for the first, 82 to 84 °C for the second.

First: CC12CCC3c4ccc(C(=O)O)cc4CCC3C1CCC2C(=O)c1ccc(S(C)(=O)=O)cc1 (stereo unspecified)
Second: O=C(O)c1ccc(C(=O)Nc2ccc(C(=O)N3CCCc4ccccc43)cc2)cc1
The melting point of the first is lower: 283 to 286 °C for the first, > 300 °C for the second.

Compared with C=C1CC2CC(O)CCC2(C)C2CCC3(C)C(C(C)CCC(=O)O)CCC3C12 (stereo unspecified), CC(=O)NCCC1(C[N+](=O)[O-])CCCCC1 is lower in melting point: 104 to 105 °C for the first, 68 to 70 °C for the second.

First: COc1ccnc(Nc2nc(-c3cc(-c4ccccc4)no3)cs2)c1
Second: COc1ccc(CNC(N)=S)cc1OCc1ccccc1
The melting point of the first is lower: 177 to 179 °C for the first, 179 to 181 °C for the second.

First: CS(=O)(=O)Nc1ccc(C(=O)CCC(=O)O)cc1
Second: Nc1ccc(NC(=O)[C@H](Cc2ccccc2)NC(=O)c2ccc(-c3nnn[nH]3)cc2)cc1
The melting point of the first is higher: 198 to 200 °C for the first, 137 °C for the second.

First: Cc1sc(-c2ccc([N+](=O)[O-])cc2)nc1O
Second: CCn1nnnc1Cc1ccc([N+](=O)[O-])cc1
The melting point of the first is higher: 244 to 248 °C for the first, 104 to 105 °C for the second.

First: O=S(=O)(CC=C1CCCC1)c1ccccc1
Second: O=c1[nH]c(Cc2ccccc2)no1
The melting point of the first is lower: 68 °C for the first, 114 to 116 °C for the second.

Compared with COc1ccc(SCCNC(=O)c2ccc(OCC=C(C)CCC=C(C)C)cc2)nc1, C=CCOc1ccccc1C(=O)Nc1c(CCC)nn(C)c1C(N)=O is higher in melting point: 82.6 to 83.4 °C for the first, 132 to 134 °C for the second.

First: COC(=O)C1C(=O)CCC1CC#N (stereo unspecified)
Second: Cc1noc2c(Oc3ncccc3C(=O)NCC3CCC(C(C)(C)O)CC3)cccc12 (stereo unspecified)
The melting point of the first is lower: 49 to 50 °C for the first, 170 to 172 °C for the second.

First: CC1(Br)COc2ccc(C#N)cc21 (stereo unspecified)
Second: CC(C)(C)c1cc(CCC(=O)NN)cc(C(C)(C)C)c1O
The melting point of the first is higher: 163 to 165 °C for the first, 153 to 154 °C for the second.

CN(CC(=O)O)C(=O)CC1=C(n2nc(-c3c(-c4ccccc4)nn4ccccc34)ccc2=O)CCCC1 gave a melting point of 135 to 138 °C.
